Source: ChEMBL document CHEMBL1137164, “Antioxidative activities of novel diphenylalkyl piperazine derivatives with high affinities for the dopamine transporter” (Bioorg Med Chem Lett, 2004)

Species on record: Canis familiaris
Test: inhibitory concentration against auto-oxidative lipid peroxidation in canine brain homogenate

| Structure (SMILES) | IC50 [µM] |
| --- | --- |
| OC(CNc1ccc(Cl)cc1)CN1CCN(CCCC(c2ccc(F)cc2)c2ccc(F)cc2)CC1 (stereo unspecified) | 8.5 |
| OC(CNc1ccc(Cl)c(Cl)c1)CN1CCN(CCCC(c2ccc(F)cc2)c2ccc(F)cc2)CC1 (stereo unspecified) | 23 |
| OC(CNc1ccccc1)CN1CCN(CCCC(c2ccc(F)cc2)c2ccc(F)cc2)CC1 (stereo unspecified) | 6.5 |
| O=[N+]([O-])c1ccc(NCC(O)CN2CCN(CCCC(c3ccc(F)cc3)c3ccc(F)cc3)CC2)cc1 (stereo unspecified) | 182 |
| OC(CNc1ccccc1)CN1CCN(CCCCC(c2ccc(F)cc2)c2ccc(F)cc2)CC1 (stereo unspecified) | 8.3 |
| OC(CNc1ccccc1)CN1CCN(C(c2ccc(F)cc2)c2ccc(F)cc2)CC1 (stereo unspecified) | 6.9 |
| OC(CNc1ccccc1)CN1CCN(CCC(c2ccc(F)cc2)c2ccc(F)cc2)CC1 (stereo unspecified) | 11 |
| OC(CNc1ccccc1)CN1CCN(CC(c2ccc(F)cc2)c2ccc(F)cc2)CC1 (stereo unspecified) | 11 |

These reach a lower IC50. Values come first.

| IC50 [µM] | Structure (SMILES) |
| --- | --- |
| 2.2 | CN(C)c1ccc(NCC(O)CN2CCN(CCCC(c3ccc(F)cc3)c3ccc(F)cc3)CC2)cc1 (stereo unspecified) |
| 2.7 | Nc1ccc(NCC(O)CN2CCN(CCCC(c3ccc(F)cc3)c3ccc(F)cc3)CC2)cc1 (stereo unspecified) |
| 0.32 | Oc1ccc(NCC(O)CN2CCN(CCCC(c3ccc(F)cc3)c3ccc(F)cc3)CC2)cc1 (stereo unspecified) |
| 2.8 | CC(C)(C)c1cc(NCC(O)CN2CCN(CCCC(c3ccc(F)cc3)c3ccc(F)cc3)CC2)cc(C(C)(C)C)c1O (stereo unspecified) |
| 1.4 | COc1cc(NCC(O)CN2CCN(CCCC(c3ccc(F)cc3)c3ccc(F)cc3)CC2)cc(OC)c1OC (stereo unspecified) |
| 1.6 | COc1ccc(NCC(O)CN2CCN(CCCC(c3ccc(F)cc3)c3ccc(F)cc3)CC2)cc1 (stereo unspecified) |
| 6.1 | Cc1ccc(NCC(O)CN2CCN(CCCC(c3ccc(F)cc3)c3ccc(F)cc3)CC2)cc1 (stereo unspecified) |
| 1.5 | Cc1c(C)c2c(c(C)c1O)CC[C@@](C)(CCC[C@H](C)CCC[C@H](C)CCCC(C)C)O2 [ALPHA-TOCOPHEROL] |
